PubChem BioAssay (NCI)
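Protocol summary: plate cells (96-well), add compound at 5 concentrations, incubate 48 h, interpolate endpoints linearly. GI50 = concentration required for 50% inhibition of growth. TGI is the concentration that stops growth completely.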

Legend:
Assay in all cases: DTP human tumour cell line panel, 48 h
[1] = system: IGROV1 ovarian
[2] = system: SW-620 colon
[3] = system: HL-60(TB) leukemia
[4] = system: OVCAR-3 ovarian
[5] = system: TK-10 renal
[6] = system: SK-MEL-2 melanoma
[7] = system: U251 CNS
[8] = system: SK-MEL-28 melanoma
[9] = system: SNB-19 CNS
[10] = system: EKVX NSCLC
[11] = system: OVCAR-8 ovarian
[12] = system: SN12C renal
[13] = system: A498 renal
[14] = system: SNB-75 CNS
[15] = system: A549 NSCLC
[16] = system: RPMI-8226 leukemia
[17] = system: SR leukemia
[18] = system: UO-31 renal
[19] = system: SF-539 CNS
[20] = system: NCI-H460 lung
[21] = system: HT29 colon
[22] = system: NCI-H522 lung
[23] = system: SK-OV-3 ovarian
[24] = system: NCI-H23 lung
[25] = system: HCC-2998 colon
[26] = system: SF-268 CNS
[27] = system: KM20L2 colon
[28] = system: MALME-3M melanoma
[29] = system: K-562 leukemia
[30] = system: KM12 colon
[31] = system: HCT-15 colon
[32] = system: COLO 205 colon
[33] = system: 786-0 renal
[34] = system: M14 melanoma
[35] = system: UACC-257 melanoma
[36] = system: HCT-116 colon
[37] = system: CCRF-CEM leukemia
[38] = system: NCI-H226 lung
[39] = system: LOX IMVI melanoma
[40] = system: ACHN renal
[41] = system: SK-MEL-5 melanoma
[42] = system: RXF 393 renal
[43] = system: MOLT-4 leukemia
[44] = system: OVCAR-5 ovarian
[45] = system: HOP-62 NSCLC
[46] = system: SF-295 CNS
[47] = system: UACC-62 melanoma
[48] = system: HOP-92 NSCLC
[49] = system: SNB-78 CNS
[50] = system: M19-MEL melanoma
[51] = system: CAKI-1 renal
[52] = system: DMS 273 small cell lung
[53] = system: DMS 114 small cell lung
[54] = system: OVCAR-4 ovarian

CC(=O)[O-].CC(=O)[O-].O=C(N/N=C/c1cc(Cl)cc(Cl)c1[OH2+])c1ccncc1.[Mn+2]
TGI [1]: 10.7 µM | TGI [2]: 8.09 µM | TGI [3]: 1.12 µM | TGI [4]: 0.956 µM | TGI [5]: 27.3 µM | GI50 [6]: 3.85 µM | TGI [6]: 8.38 µM | TGI [7]: 24.3 µM | TGI [8]: 25 µM | TGI [9]: 36.1 µM | TGI [10]: 7.76 µM | TGI [11]: 10.1 µM | TGI [12]: 21.2 µM | TGI [13]: 41 µM | TGI [14]: 30.2 µM | TGI [15]: 79.7 µM | TGI [16]: 8.88 µM | TGI [17]: 4.4 µM | TGI [18]: 18.6 µM | TGI [19]: 13.4 µM | TGI [20]: 15.8 µM | TGI [21]: 31.6 µM | TGI [22]: 14.8 µM | TGI [23]: 51.1 µM | TGI [24]: 21.9 µM | TGI [25]: 17 µM | TGI [26]: 27.2 µM | TGI [27]: 16 µM | TGI [28]: 18 µM | TGI [29]: 14.8 µM | TGI [30]: 23.8 µM | TGI [31]: 25.1 µM | TGI [32]: 10.9 µM | TGI [33]: 15.6 µM | TGI [34]: 13.6 µM | TGI [35]: 14.7 µM | TGI [36]: 17.7 µM | TGI [37]: 2.15 µM | TGI [38]: 12.1 µM | TGI [39]: 15.2 µM | TGI [40]: 13.8 µM | TGI [41]: 11 µM | TGI [42]: 20.7 µM | TGI [43]: 0.84 µM | TGI [44]: 8.49 µM | TGI [45]: 68 µM | TGI [46]: 7.48 µM | TGI [47]: 5.54 µM | GI50 [48]: 4.71 µM | TGI [48]: 9.91 µM

CC(=O)OC1CCC2OOC1O2 (stereo not drawn)
TGI [1]: > 100 µM | TGI [2]: > 100 µM | TGI [49]: > 100 µM | TGI [3]: > 100 µM | TGI [4]: > 100 µM | TGI [5]: > 100 µM | TGI [6]: > 100 µM | TGI [7]: > 100 µM | TGI [8]: > 100 µM | TGI [9]: > 100 µM | TGI [10]: > 100 µM | TGI [11]: > 100 µM | TGI [12]: > 100 µM | TGI [13]: > 100 µM | TGI [50]: > 100 µM | TGI [14]: > 100 µM | TGI [15]: > 100 µM | TGI [51]: > 100 µM | TGI [16]: > 100 µM | TGI [17]: > 100 µM | TGI [18]: > 100 µM | TGI [19]: > 100 µM | TGI [20]: > 100 µM | TGI [21]: > 100 µM | TGI [22]: > 100 µM | TGI [23]: > 100 µM | TGI [24]: > 100 µM | TGI [25]: > 100 µM | TGI [26]: > 100 µM | TGI [52]: > 100 µM | TGI [27]: > 100 µM | TGI [28]: > 100 µM | TGI [29]: > 100 µM | TGI [30]: > 100 µM | TGI [31]: > 100 µM | TGI [32]: > 100 µM | TGI [33]: > 100 µM | TGI [34]: > 100 µM | TGI [35]: > 100 µM | TGI [36]: > 100 µM | TGI [53]: > 100 µM | TGI [37]: > 100 µM | TGI [38]: > 100 µM | TGI [39]: > 100 µM | TGI [54]: > 100 µM | TGI [40]: > 100 µM | TGI [41]: > 100 µM | TGI [42]: > 100 µM | TGI [43]: > 100 µM | TGI [44]: > 100 µM | TGI [45]: > 100 µM | TGI [46]: > 100 µM | TGI [47]: > 100 µM
